# Results taken from patent US12599592B2, “Therapeutic small molecules for treatment of pulmonary hypertension” (UNIVERSITY OF PITTSBURGH—OF THE COMMONWEALTH SYSTEM OF …, priority 2020, dated 2026).
# Experiments:
# PAECs [1] = assay: Apoptosis by caspase-3/7 activity in PAECs; assay type: cell-based, human
# Source text: (§1) Cell culture: Primary human pulmonary artery endothelial cells (PAECs) and human pulmonary artery smooth muscle cells (PASMCs) were purchased from Lonza (302-05A, CC-2581). Of note, the same two male donors were the source of all PAECs in the experiments shown. Two additional male donors were the source for all PASMCs in the experiments shown. Cells from these and any donors were characterized by flow cytometry for consistent expression of cell surface markers and by RNA (RT-qPCR) analysis of endothelial and smooth muscle gene expression. PAECs were cultured in EGM-2 media (CC-3121) along with supplements (CC-4133), and PASMCs were cultured in SmGM-2 culture media (Lonza, CC-3182) at 5% CO2 in a humidified incubator.
# Human recombinant galectin-8 (1305-GA-050) was purchased from R&D Systems and was used at a working concentration of 30 nM.
# (§2) For hypoxia exposure, cells were plated in 6-well cell culture plates at 1×10^5 cells/well, grown for 24 hr and placed into a normobaric hypoxia chamber (1% O2) for 24 h under specific treatment conditions. Namely, for I-BET and siLGALS8 exposures, cells were either pre-treated with I-BET/vehicle control (VC) or transfected with siLgals8/Scr for 24 h. Then, they were cultured in basal media at 1% 02. After 24 h, caspase activity and mitochondrial superoxide levels were quantified. To detect activation status of pSTAT1/STAT1 by immunoblot, cells were exposed to 8 h of hypoxia.
# (§3) In IL-6/sIL-6R+hypoxia experiments, a human recombinant IL-6/IL-6R alpha protein chimera (25 ng/ml, Millipore) was administered at 70-80% confluency for 48 h in complete media along with vehicle control (DMSO, Sigma-41639). BRD2889 (1 uM) vs. vehicle control were added, as indicated, and placed into a hypoxia chamber for 24 h. The hypoxia chamber (modular incubator chamber) was obtained from Billups-Rothenberg Inc. (Del Mar, Calif) and placed in regulated CO2 incubator at 37° C.
# Cellular apoptosis: Caspase-3/7 activity was quantified using the Caspase-Glo 3/7 Assay (Promega), according to manufacturer's instructions. Caspase-3/7 activity was normalized to total protein content determined by BCA method (Thermo Fisher Scientific).
# PAECs [2] = assay: Global transcriptome microarray in PAECs; assay type: cell-based, human; conditions: transcriptional array, hypoxia +/- BRD2889
# Source text: The gene expression was normalized with Robust Multiarray Analysis (RMA). For BRD2889, the same approach was employed using Affymetrix Clariom S array on RNA isolated from PAECs treated with BRD2889 or vehicle and subjected to either hypoxia or normoxia. Differentially expressed genes were defined as any gene for which the FDR adjusted p-value was below 0.05 (n=3/grp). Reversed genes were further defined as those genes that were differentially expressed in both (hypoxia versus normoxia) and in (hypoxia+BRD2889 versus hypoxia)+vehicle as well as were regulated in opposite directions. Similarly, for I-BET that were differentially expressed in IL-1β+VC versus control and IL-1β+I-BET versus IL-1β+VC and were regulated in opposite directions. The data for both I-BET and BRD2889 have been submitted to the NCBI Gene Expression Omnibus with accession numbers GSE125508 and GSE160255, respectively.
# [3] = molecular target: T1, glutathione S-transferase (GST) activity / GSTP1 (Homo sapiens, UniProt P09211); assay: GST activity in PAECs; assay type: cell-based
# T1 construct: endogenous in cells; host or cells: primary human PAECs (hypoxia or IL-6/sIL-6R+hypoxia)
# T1 sequence (P09211 2-210 limits assumed): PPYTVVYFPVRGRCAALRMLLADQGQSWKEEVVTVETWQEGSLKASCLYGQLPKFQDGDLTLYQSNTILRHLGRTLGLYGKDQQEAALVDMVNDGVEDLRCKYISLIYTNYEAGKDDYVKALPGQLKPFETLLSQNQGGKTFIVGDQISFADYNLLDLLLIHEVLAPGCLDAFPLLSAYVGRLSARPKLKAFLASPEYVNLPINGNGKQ
# Method: as §2, §3
# glutathionylated ISCU = assay: ISCU glutathionylation by immunoprecipitation and immunoblot in PAECs; assay type: cell-based, human; conditions: hypoxic PAECs, BRD2889 1 mM, 24 h
# Method: Protein stability assay: The proteasome inhibitor MG132 (M7449, Sigma) was stored at −20° C. at a concentration of 10 mM diluted in dimethyl sulfoxide (DMSO). PAECs were exposed to MG132 ([…]) vs. DMSO vehicle control for 2 hr under hypoxia, prior to harvesting of cellular lysate for immunoblotting.
# Immunoblot and densitometry: Cells were lysed in RIPA buffer (Sigma) along with 1× protease inhibitor cocktail (Sigma). Protein lysate was resolved by gradient 4%-15% SDS-PAGE gels and transferred onto a 0.2 μm PVDF membrane (Bio-Rad). Membranes were blocked in 5% non-fat milk in 1×PBST buffer for one hour at room temperature. Later, they were incubated in the presence of the primary antibody overnight at 4° C. and then appropriate HRP-conjugated secondary antibodies (Life Technologies). […] The images were later quantified using AlphaEaseFC software (Alpha Innotech).
# Immunoprecipitation: PAECs were transfected with the indicated combinations of siRNAs by Lipofectamine 2000 (Thermo Fisher Scientific) according to the manufacturer's instructions and/or treated with BRD2889 ([…], 24 h). […] After extensive washing, the immunoprecipitated proteins were analyzed by immunoblotting with the indicated antibodies.
# C43 genes ISCU and mTOR = assay: RT-qPCR of Cluster 43 genes in PASMCs; assay type: cell-based, human; conditions: BRD2889 5 uM
# Source text: as §1
# RT-qPCR analysis: Cells were lysis in 1 ml of QiaZol reagent (Qiagen). Total RNA content was extracted using the RNeasy kit (Qiagen), according to the manufacturer's instructions. Total RNA concentration was determined using a BioTek Synergy multimode plate reader. Messenger RNAs were reverse transcribed to generate cDNA using the Multiscript RT kit (Thermo Fisher Scientific). cDNA for specific gene targets was amplified and quantified via fluorescently-labeled Taqman primer sets and Taqman fast advanced master mix (Thermo Fisher Scientific) using an Applied Biosystems QuantStudio 6 Flex Real-Time PCR System.
# PASMCs = assay: BrdU proliferation in PASMCs; assay type: cell-based, human; conditions: IL-6/sIL-6R + hypoxia
# Method: as §3
# BrdU growth assay: Cell proliferation was assayed relative to day 0 using a BrdU Cell Proliferation Assay Kit (#6813, Cell Signaling) according to the manufacturer's protocol after incubation for 2 h with BrdU.
smiles,measurement,setting,value
COc1ccc(C#CC2CCCN(C(=O)/C=C/c3cc(OC)c(OC)c(OC)c3)C2=O)cc1 (stereo not shown) [BRD2889],apoptosis (caspase 3/7),"PAECs [1]; PAECs, IL-6/sIL-6R + hypoxia",reduced apoptosis
same,apoptosis (caspase 3/7 activity),PAECs [1]; hypoxic PAECs,reversed the increase
same,hypoxic increase in apoptosis,PAECs [1]; hypoxic PAECs with siRNA knockdown of ISCU,did not reverse
same,number of genes altered by hypoxia but reversed by drug,PAECs [2],3830 genes
same,GSTP1 (GST) activity,"[3]; PAECs, IL-6/sIL-6R + hypoxia, BRD2889 1 uM",reversed the increase
same,GST enzyme activity,[3]; hypoxic PAECs,reduced the hypoxic increase
same,ISCU glutathionylation (α-GSH immunoblot after α-ISCU pulldown),glutathionylated ISCU,converse reduction of glutathionylation
same,hypoxia-induced reduction in ISCU transcript,C43 genes ISCU and mTOR,unaffected
same,mTOR transcript,C43 genes ISCU and mTOR; hypoxia,no change
same,proliferation,PASMCs,did not affect
